Assay results: patent publication US20040044046A1, “Stability of lipoic acid” (priority 2002, published 2004)

Experiments:
[1] = reduced form with two -SH groups; cited from earlier work
[2] = Storage stability of the nicotinamide lipoate crystalline powder, followed by repeated infrared spectrophotometry; assay type: physicochemical
Excerpt: A small quantity of the powder as a mineral oil mull spread was spread on NaCl polished crystal plates. The plate was placed in a Beckman Infrared Spectrophotometer AccuLab 2 grating machine, linear in wave number.

[3] = can degrade under some warehousing conditions; cited from earlier work

Compound: O=C(O)CCCC[C@@H](S)CCS (racemic) [DHLA, dihydrolipoate]
- Oxidation potential [1]: −0.29 V

Compound: NC(=O)c1cccnc1.O=C(O)CCCCC1CCSS1 (stereo not shown) [Example 1]
- Change in crystal form or chemical composition on standing ([2]; ambient conditions (light and temperature) for over a year): essentially no change
- Infrared spectrum on repeat spectrophotometry compared with initial spectrum ([2]; mineral oil mull on NaCl plates, repeated at about 3 and 17 months, ambient conditions (light and temperature)): essentially the same

Compound: O=C(O)CCCC[C@@H]1CCSS1 [R-LA, R-α-lipoic acid]
- Temperature above which unstable [3]: above 40 °C
